Calls of active or inactive are those of the source. The rule behind the calls is not given here.

In general, inhibition refers to the drop in the measured response relative to a control, in per cent.

For the assay, the target named is fMet-Leu-Phe receptor (Homo sapiens) (UniProt P21462). In words: FPR antagonists blocking calcium flux, SAR follow-up, U937 cells, fMLFF stimulus, Fluo4, flow cytometry (AID 863). The settings on record: FPR-expressing U937 cells, fMLFF-induced Fluo4 calcium flux, 80 s, hits give high values, concentration not given here. (In general: A change in cytosolic calcium serves as a functional read-out for many receptors and channels.)
Sequence of fMet-Leu-Phe receptor (Homo sapiens) (P21462 whole entry, looked up): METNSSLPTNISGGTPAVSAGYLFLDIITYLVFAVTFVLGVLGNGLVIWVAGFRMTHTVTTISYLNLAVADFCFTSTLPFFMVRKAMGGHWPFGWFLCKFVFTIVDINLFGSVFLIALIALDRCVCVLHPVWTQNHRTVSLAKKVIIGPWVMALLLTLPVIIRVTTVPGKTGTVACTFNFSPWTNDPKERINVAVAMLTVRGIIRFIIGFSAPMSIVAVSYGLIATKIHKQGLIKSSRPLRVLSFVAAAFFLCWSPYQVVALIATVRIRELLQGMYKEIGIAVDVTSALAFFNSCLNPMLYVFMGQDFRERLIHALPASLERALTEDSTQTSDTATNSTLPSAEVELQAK
With `CCCCCCN1C(=O)C(=O)/C(=C(\O)c2ccccc2)C1c1ccc(O)c(OC)c1` (centres undefined), the inhibition was 44% (inactive).

As to `Cc1nc2c(-c3ccc(Cl)cc3)c(C(F)(F)F)[nH]n2c(=O)c1Cc1ccccc1`, the inhibition was 98.1%.

Take `COc1ccc(C2C(C(=O)c3cccs3)=C(O)C(=O)N2CCCn2ccnc2)cc1` (centres undefined): the inhibition was 96.9%.

Regarding `COc1ccccc1-c1c(C(F)(F)F)oc2cc(OC(=O)c3ccco3)ccc2c1=O`, the inhibition is 98.8%.

In the case of `COc1ccc(C2/C(=C(\O)c3ccccc3)C(=O)C(=O)N2CCCn2ccnc2)c(OC)c1` (centres undefined), the inhibition is 99.5%.

On to `O=C(C1=C(O)C(=O)N(CCc2ccccc2)C1c1ccc(Cl)cc1)c1cccs1` (centres undefined), for which the inhibition was 81.3% (inactive).

Turning to `COc1ccc(C2C(C(=O)c3cccs3)=C(O)C(=O)N2CCN2CCOCC2)c(OC)c1` (centres undefined), the inhibition was 72.3% (inactive).

On to `COCCN1C(=O)C(=O)/C(=C(/O)c2ccccc2)C1c1cc(OC)ccc1OC` (centres undefined), for which the inhibition was 97.5%.

On to `COc1ccc(C2C(C(=O)c3ccco3)=C(O)C(=O)N2CCN2CCOCC2)c(OC)c1` (centres undefined), for which the inhibition is 58.1% (inactive).

Regarding `COc1ccc(OC)c(C2/C(=C(\O)c3ccccc3)C(=O)C(=O)N2c2cccnc2)c1` (centres undefined), the inhibition was 40.7% (inactive).

Turning to `COc1ccc(-c2c(C(F)(F)F)oc3cc(OC(=O)c4ccco4)ccc3c2=O)cc1OC`, the inhibition is 93%.

For the molecule `CCc1cc2c(=O)c(-c3nc4ccccc4n3C)c(C)oc2cc1OC(C)=O`, the inhibition is 101%.

In the case of `O=C(Oc1ccc2c(=O)c(-c3ccccc3Cl)c(C(F)(F)F)oc2c1)c1cccs1`, the inhibition is 185%.

As to `COc1ccc(-c2c(C(F)(F)F)oc3cc(OC(=O)c4cccnc4)ccc3c2=O)cc1OC`, the inhibition is 85.6% (inactive).

The values above are taken from PubChem BioAssay AID863 (NMMLSC, 2007).
